Laboratory results published in patent publication US8633183B2 (priority 2010, dated 2014).
pIC50: −log10 of the molar value.

Biological target: PI3Kalpha (Homo sapiens (Human), UniProt P42336)
Settings: read-out: IC50 PI3K
Method: Plot the concentration of each compound versus the emission ratio. […] Determination of IC50 values can be obtained by curve fitting (sigmoidal dose response, variable slope) using Prism software from GraphPad).
Method Type: Filter-Binding-Assay
Compounds are serially diluted in assay buffer+6% DMSO and 10 μl of each dilution is added per well of a 96-well plate (compounds are tested in duplicates) and mixed with 30 μl of the lipid vesicles containing PDGFR-Peptide (0.5 μM final) and PI3K alpha (25 ng/well final). The mixture is then incubated for 20 minutes at room temperature. Subsequently, 20 μl of assay buffer containing 3 μM cold ATP and 0.5 μCi/20 μl 33P-ATP are added. The plates are then incubated at room temperature for 120 minutes (shaking with 300 rpm). The reaction mix is transferred onto filter plates using “filtermate harvester” from Packard: filter plates are rinsed with PBS, then the reaction mix is filtered onto the filter plate, washed 5 times with PBS and are allowed to dry for 30-60 minutes at 50° C.
As positive control serve wells containing vehicle controls (1% DMSO in assay buffer), showing non-inhibited kinase activity (high values). Wells containing assay buffer instead of enzyme can serve as control for background activity (low values).
Calculate IC50 values using the Smiley program (based on GrapPad Prism)

Chain of PI3Kalpha (P42336 whole entry, looked up): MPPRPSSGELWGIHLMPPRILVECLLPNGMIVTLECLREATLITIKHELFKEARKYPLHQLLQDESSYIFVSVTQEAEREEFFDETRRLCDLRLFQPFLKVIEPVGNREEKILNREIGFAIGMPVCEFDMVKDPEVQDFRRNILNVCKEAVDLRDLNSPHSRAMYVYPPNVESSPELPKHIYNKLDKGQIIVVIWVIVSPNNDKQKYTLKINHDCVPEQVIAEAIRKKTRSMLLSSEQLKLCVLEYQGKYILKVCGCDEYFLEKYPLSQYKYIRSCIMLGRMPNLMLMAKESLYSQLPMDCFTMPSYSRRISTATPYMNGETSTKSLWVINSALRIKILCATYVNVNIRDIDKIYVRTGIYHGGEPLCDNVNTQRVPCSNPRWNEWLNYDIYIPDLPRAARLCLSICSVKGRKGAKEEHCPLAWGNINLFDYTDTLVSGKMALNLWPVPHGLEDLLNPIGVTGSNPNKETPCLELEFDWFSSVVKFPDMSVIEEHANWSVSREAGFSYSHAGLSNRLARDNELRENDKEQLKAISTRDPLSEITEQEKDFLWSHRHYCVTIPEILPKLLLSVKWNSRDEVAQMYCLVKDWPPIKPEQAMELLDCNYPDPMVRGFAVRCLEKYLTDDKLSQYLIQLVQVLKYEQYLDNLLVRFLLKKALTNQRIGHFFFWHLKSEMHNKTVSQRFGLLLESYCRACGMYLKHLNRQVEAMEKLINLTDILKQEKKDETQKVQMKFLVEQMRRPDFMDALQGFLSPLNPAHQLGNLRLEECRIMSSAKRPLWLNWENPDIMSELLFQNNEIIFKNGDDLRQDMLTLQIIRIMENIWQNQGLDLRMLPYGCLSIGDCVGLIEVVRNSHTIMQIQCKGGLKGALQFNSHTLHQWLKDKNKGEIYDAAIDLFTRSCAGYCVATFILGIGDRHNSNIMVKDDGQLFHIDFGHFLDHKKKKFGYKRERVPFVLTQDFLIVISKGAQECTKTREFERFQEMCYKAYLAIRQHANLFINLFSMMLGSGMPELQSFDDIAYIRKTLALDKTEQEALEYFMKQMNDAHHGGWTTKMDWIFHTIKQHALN

`Cc1ncnc(-c2ccc(C(=O)N3CCN(C4CCS(=O)(=O)C4)CC3)cc2)c1C#Cc1ccc(N)nc1` [Example D-192] showed a pIC50 of 6.87.

`CCc1ncnc(-c2ccc(C(=O)N3CCN(C4CC4)CC3)c(F)c2)c1C#Cc1ccc(N)nc1` [Example D-121] was tested, and the pIC50 was 6.90.

In the case of `CCc1ncnc(-c2ccc(C(=O)N3CCN4CCCCC4C3)c(F)c2)c1C#Cc1ccc(N)nc1C` [Example D-18], the pIC50 was 6.32.

`CCc1ncnc(-c2ccc(C(=O)N3CCN(CCOCCO)CC3)c(F)c2)c1C#Cc1ccc(N)nc1` [Example E-345] showed a pIC50 of 6.96.

Work on `CCc1ncnc(-c2ccc(C(=O)N3CCNC(=O)C3)c(Cl)c2)c1C#Cc1ccc(N)nc1` [Example D-44] yielded a pIC50 of 7.57.

`CCc1ncnc(-c2ccc(C(=O)N3CCN(CCO)CC3)c(Cl)c2)c1C#Cc1ccc(N)nc1` [Example D-36] was tested, and the pIC50 was 7.08.

For `CCc1ncnc(-c2ccc(N(C)C)nc2)c1C#Cc1ccc(N)nc1` [Example C-34], the pIC50 was 7.43.

`CCc1ncnc(-c2ccc(C(=O)N3CCC(N4CCC(C)CC4)C3)c(Cl)c2)c1C#Cc1ccc(N)nc1` (centres unmarked) [Example E-76] was tested, and the pIC50 was 6.63.

With `CCc1ncnc(-c2ccc(C(=O)N3CCN(CCOC)CC3)c(OC)c2)c1C#Cc1ccc(N)nc1` [Example D-52] the pIC50 was 6.87.

With `CCc1ncnc(-c2ccc(C(=O)N3CCOC4(CCN(C(=O)OC(C)(C)C)CC4)C3)c(F)c2)c1C#Cc1ccc(N)nc1` [Example E-325] the pIC50 was 5.93.

`CCc1ncnc(-c2cc(F)c(C(=O)N3CCN4CCC[C@H]4C3)c(F)c2)c1C#Cc1ccc(NC)nc1` [Example E-207] gave a pIC50 of 6.24.

Compound `Cc1cc(-c2ncnc(C)c2C#Cc2ccc(N)nc2)ccn1` [Example C-20] has a pIC50 of 7.24.

Work on `COCCN1CCN(C(=O)c2ccc(-c3ncnc(C)c3C#Cc3ccc(N)nc3)cc2)CC1` [Example D-189] yielded a pIC50 of 6.93.

`CCc1ncnc(-c2ccc(C(=O)N3CCC[C@H]3CO)c(F)c2)c1C#Cc1ccc(N)nc1` [Example E-17] was tested, and the pIC50 was 6.87.

Compound `CCc1ncnc(-c2ccc(C(=O)NC3CCN(CCOC)CC3)c(F)c2)c1C#Cc1ccc(N)nc1` [Example D-201] has a pIC50 of 6.87.

For `CCc1ncnc(-c2ccc(C(=O)N3CCN(C)C(C)(C)C3)c(F)c2)c1C#Cc1ccc(N)nc1` [Example D-127], the pIC50 was 6.46.

`CCc1ncnc(-c2ccc(C(=O)N3CCN(Cc4ccccc4)CC3)c(F)c2)c1C#Cc1ccc(N)nc1C` [Example D-24] gave a pIC50 of 5.99.

`CCc1ncnc(-c2ccc(C(=O)N3CCN(C(C)COC)CC3)c(Cl)c2)c1C#Cc1ccc(N)nc1` (centres unmarked) [Example E-313] gave a pIC50 of 6.91.

Compound `CCc1ncnc(-c2ccc(C(=O)N(C)O)c(C)c2)c1C#Cc1ccc(N)nc1` [Example E-128] has a pIC50 of 7.43.

With `CCNc1ccc(C#Cc2c(CC)ncnc2-c2ccc(C(=O)N3CCn4c(C)cnc4C3)c(F)c2)cn1` [Example E-262] the pIC50 was 6.87.

For `CCc1ncnc(-c2ccc(Cl)c(C(=O)N(CC)CC)c2)c1C#Cc1ccc(N)nc1` [Example C-47], the pIC50 was 6.27.

In the case of `CCc1ncnc(-c2ccc(C(=O)NCCN3CCOCC3)c(Cl)c2)c1C#Cc1ccc(N)nc1` [Example E-84], the pIC50 was 6.95.

Work on `CCc1ncnc(-c2ccc(C(=O)N3CCC(O)CC3)c(F)c2)c1C#Cc1ccc(N)nc1` [Example D-71] yielded a pIC50 of 7.07.

Compound `CCc1ncnc(-c2ccc(C(=O)N3CCN(Cc4cc(C)no4)CC3)c(Cl)c2)c1C#Cc1ccc(N)nc1` [Example E-312] has a pIC50 of 6.96.

For `CCc1ncnc(-c2ccc(C(=O)N3CCCOCC3)c(Cl)c2)c1C#Cc1ccc(N)nc1` [Example D-157], the pIC50 was 7.19.

For `CCc1ncnc(-c2ccc(C(=O)N(C)C3CCS(=O)(=O)C3)c(C)c2)c1C#Cc1ccc(N)nc1` (centres unmarked) [Example E-105], the pIC50 was 7.29.

Work on `CCc1ncnc(-c2ccc(C(=O)NC)c(Cl)c2)c1C#Cc1ccc(C)nc1` [Example C-16] yielded a pIC50 of 6.63.

In the case of `CCc1ncnc(-c2ccc(C(F)(F)F)nc2)c1C#Cc1ccc(N)nc1` [Example C-28], the pIC50 was 7.24.

`CCc1ncnc(-c2cc(F)c(C(=O)N3CCC4(CC3)CN(C)C4)c(Cl)c2)c1C#Cc1ccc(N)nc1` [Example E-337] gave a pIC50 of 6.06.

For `CCc1ncnc(-c2ccc(C(=O)N3CCCN(C)CC3)c(F)c2)c1C#Cc1ccc(N)nc1` [Example D-118], the pIC50 was 6.39.

`Cc1ncnc(-c2ccc(C(=O)N3CCCCO3)c(Cl)c2)c1C#Cc1ccc(N)nc1` [Example D-231] was tested, and the pIC50 was 7.34.

`CCCCN1CCN(C(=O)c2ccc(-c3ncnc(CC)c3C#Cc3ccc(N)nc3)cc2OC)CC1` [Example E-43] gave a pIC50 of 6.30.

Work on `CCc1ncnc(-c2cc(Cl)c(C(=O)N3CCC(CO)CC3)c(Cl)c2)c1C#Cc1ccc(N)nc1` [Example E-205] yielded a pIC50 of 7.31.

Work on `CCc1ncnc(-c2ccc(C(=O)N3CCC(N(C)C)CC3)c(F)c2)c1C#Cc1ccc(N)nc1` [Example D-100] yielded a pIC50 of 6.46.

With `CCc1ncnc(-c2ccc(C)nc2)c1C#Cc1ccc(N)nc1` [Example C-31] the pIC50 was 7.52.

`CCc1ncnc(-c2ccc(C(=O)N3CCN(C)CC3)c(F)c2)c1C#Cc1ccc(N)nc1C` [Example D-21] was tested, and the pIC50 was 6.57.

Compound `CCc1ncnc(-c2cc(F)c(C(=O)N3CCN(C4CCOCC4)CC3)c(F)c2)c1C#Cc1ccc(NC)nc1` [Example E-216] has a pIC50 of 6.33.

`Cc1ncnc(-c2cccc(C(=O)N(C)C)c2)c1C#Cc1ccc(N)nc1` [Example C-10] was tested, and the pIC50 was 6.40.

Work on `CCc1ncnc(-c2ccc(C(=O)NCCN3CCOCC3)c(OC)c2)c1C#Cc1ccc(N)nc1` [Example E-64] yielded a pIC50 of 6.93.

In the case of `CCc1ncnc(-c2ccc(C(=O)N3CCN(C)CC3)c(F)c2)c1C#Cc1ccc(NC)nc1` [Example E-182], the pIC50 was 6.61.

`CCc1ncnc(-c2cc(F)c(C(=O)N3CCN(CCNS(C)(=O)=O)CC3)c(Cl)c2)c1C#Cc1ccc(N)nc1` [Example E-159] gave a pIC50 of 7.59.

Work on `CCc1ncnc(-c2ccc(C(=O)N3CCN(C4CCS(=O)(=O)C4)CC3)c(Cl)c2)c1C#Cc1ccc(N)nc1` [Example D-32] yielded a pIC50 of 6.92.

With `CCc1ncnc(-c2ccc(C(=O)N3CCN(CCN)CC3)c(Cl)c2)c1C#Cc1ccc(N)nc1` [Example E-284] the pIC50 was 6.74.

`CCc1ncnc(-c2ccc(C(=O)N3CCC(N4CCC(C)CC4)C3)c(F)c2)c1C#Cc1ccc(N)nc1` [Example D-108] showed a pIC50 of 6.50.

With `CCc1ncnc(-c2ccc(C(=O)N3CCC4(CCN(C)C4)C3)c(Cl)c2)c1C#Cc1ccc(N)nc1` (centres unmarked) [Example E-40] the pIC50 was 6.29.

With `CCc1ncnc(-c2ccnc(C)c2)c1C#Cc1ccc(N)nc1` [Example C-27] the pIC50 was 7.24.

`CCc1ncnc(-c2ccc(C(=O)N3CCC4(CCN(C(=O)OC(C)(C)C)CC4)C3)c(F)c2)c1C#Cc1ccc(N)nc1` [Example E-327] showed a pIC50 of 5.87.

In the case of `CCc1ncnc(-c2ccc(C(=O)N3CCN(CC4CCCCC4)CC3)c(F)c2)c1C#Cc1ccc(N)nc1C` [Example D-22], the pIC50 was 5.90.

`CCc1ncnc(-c2cc(F)c(C(=O)N3CCN(CC(C)(C)O)CC3)c(F)c2)c1C#Cc1ccc(NC)nc1` [Example E-212] showed a pIC50 of 6.19.

`CCc1ncnc(-c2cc(Cl)c(C(=O)N3CCC(C)(O)CC3)c(Cl)c2)c1C#Cc1ccc(N)nc1` [Example E-203] showed a pIC50 of 7.02.

For `CCc1ncnc(-c2cc(Cl)c(C(=O)N3CCN(C)CC3)c(Cl)c2)c1C#Cc1ccc(N)nc1` [Example E-197], the pIC50 was 6.91.

With `CCc1ncnc(-c2ccc(C(=O)N3CCCO3)c(OC)c2)c1C#Cc1ccc(N)nc1` [Example E-50] the pIC50 was 6.80.

`CCc1ncnc(-c2ccc(C(=O)N3CCN(c4ccccn4)CC3)c(F)c2)c1C#Cc1ccc(N)nc1` [Example D-92] showed a pIC50 of 6.91.

In the case of `CCc1ncnc(-c2ccc(C(=O)NC3CCCN(C)C3)c(Cl)c2)c1C#Cc1ccc(N)nc1` [Example D-140], the pIC50 was 6.29.

`CCc1ncnc(-c2ccc(C(=O)N3CCN(c4ccccc4)CC3)c(Cl)c2)c1C#Cc1ccc(N)nc1` [Example D-39] gave a pIC50 of 7.05.

Work on `CCc1ncnc(-c2ccc(C(=O)N3CCC4(CC3)CN(C(=O)OC(C)(C)C)CCO4)c(F)c2)c1C#Cc1ccc(N)nc1` [Example E-321] yielded a pIC50 of 6.38.

`CCc1ncnc(-c2ccc(C(=O)N3CCN(CC4CCCO4)CC3)c(F)c2)c1C#Cc1ccc(N)nc1C` [Example D-16] showed a pIC50 of 6.72.

`CCc1ncnc(-c2ccc(C(=O)N3CC[C@@H](O)C3)c(Cl)c2)c1C#Cc1ccc(N)nc1` [Example E-28] showed a pIC50 of 7.18.

Work on `CCc1ncnc(-c2ccc(C(=O)N3C[C@H]4CNC[C@H]4C3)c(F)c2)c1C#Cc1ccc(N)nc1` [Example E-330] yielded a pIC50 of 6.22.

`CCc1ncnc(-c2ccc(C(=O)N3CCN(C(C)CO)CC3)c(F)c2)c1C#Cc1ccc(N)nc1` (centres unmarked) [Example E-292] was tested, and the pIC50 was 6.67.

Compound `CCc1ncnc(-c2ccc(C(=O)NC3CCN(C4CCN(C)CC4)C3)c(F)c2)c1C#Cc1ccc(N)nc1` [Example D-210] has a pIC50 of 6.43.

For `CCc1ncnc(-c2ccc(C(=O)N3CCN(CC(F)F)CC3)c(OC)c2)c1C#Cc1ccc(N)nc1` [Example D-47], the pIC50 was 7.20.

`Cc1ncnc(-c2ccc(F)c(C(=O)N3CCOCC3)c2)c1C#Cc1ccc(N)nc1` [Example C-39] gave a pIC50 of 6.42.

Work on `CCc1ncnc(-c2cc(F)c(C(=O)N3CCn4ccnc4C3)c(F)c2)c1C#Cc1ccc(N)nc1` [Example E-147] yielded a pIC50 of 7.25.

`Cc1ncnc(-c2ccc(F)c(C(=O)N3CCCCC3)c2)c1C#Cc1ccc(N)nc1` [Example C-41] showed a pIC50 of 6.27.

Work on `CCc1ncnc(-c2ccc(C(=O)N(C)C3CCS(=O)(=O)C3)c(OC)c2)c1C#Cc1ccc(N)nc1` (centres unmarked) [Example E-61] yielded a pIC50 of 6.99.

In the case of `CCc1ncnc(-c2ccc(C(=O)NC3CC(N4CCN(C)CC4)C3)c(F)c2)c1C#Cc1ccc(N)nc1` [Example D-198], the pIC50 was 6.69.

`CCc1ncnc(-c2ccc(C(=O)NCC3CCN(C)C3)c(F)c2)c1C#Cc1ccc(N)nc1` [Example D-75] showed a pIC50 of 6.47.

`CCc1ncnc(-c2ccc(C(=O)N3CCN(CC(=O)N(C)C)CC3)c(F)c2)c1C#Cc1ccc(N)nc1C` [Example D-23] gave a pIC50 of 6.91.

In the case of `CCc1ncnc(-c2ccc(C(=O)N3CCN(CCN(C)C)CC3)c(F)c2)c1C#Cc1ccc(N)nc1C` [Example D-26], the pIC50 was 6.26.

In the case of `CCOC(=O)N1CCN(C(=O)c2ccc(-c3ncnc(CC)c3C#Cc3ccc(N)nc3)cc2Cl)CC1` [Example E-82], the pIC50 was 7.09.

`CCc1ncnc(-c2ccc(C(=O)N3CCC(O)CC3)c(Cl)c2)c1C#Cc1ccc(N)nc1` [Example E-38] gave a pIC50 of 7.28.

`CCc1ncnc(-c2ccc(C(=O)N3CCn4cnnc4C3)c(F)c2)c1C#Cc1ccc(N)nc1` [Example E-248] showed a pIC50 of 7.29.

`CCc1ncnc(-c2ccc(C(=O)N3CC(O)CO3)c(OC)c2)c1C#Cc1ccc(N)nc1` (centres unmarked) [Example E-49] showed a pIC50 of 7.13.
